For 29 compounds, TGI and GI50 results are on record in PubChem BioAssay (NCI).

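Each compound was tested at five concentrations against cells in 96-well plates for 48 hours. GI50 = concentration required for 50% inhibition of growth. Definition used: TGI = concentration required for complete inhibition of growth.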

Assay in all cases: NCI-60 cell line screen, 48 h
The subject of test [1] is MOLT-4 leukemia.
The test system of test [2] is SK-MEL-2 melanoma.
For test [3], the system named is UACC-62 melanoma.
The test system of test [4] is HS 578T breast.
The test system of test [5] is HT29 colon.
In test [6] the test system is A498 renal.
Test [7] deals with IGROV1 ovarian.
The test system of test [8] is OVCAR-5 ovarian.
For test [9], the system named is MALME-3M melanoma.
Test [10] concerns SR leukemia.

As to `COc1ccc(/C=C2/CSCC3=C2NC(=S)NC3c2ccc(OC)c(OC)c2OC)c(OC)c1OC` (centres undefined), the TGI in test [1] was more than 100 µM; in test [2], 63.6 µM; in test [3], 45 µM; in test [4], more than 100 µM; in [5], 61.1 µM; in test [6], 39.1 µM. For the same compound, the TGI was 44.7 µM in test [7], 57.5 µM in [8] and 78.6 µM in test [9].

With `CC(CC(N)C(=O)O)C(=O)O` (centres undefined), the TGI in test [1], in test [2], in [3], in test [4], in test [5] and in [6] was more than 100 µM in each case. The TGI in [7], in test [10], in [8] and in [9] was more than 100 µM each time.

With `COc1cccc(C23CCCC(C2)NCC3Br)c1OC` (centres undefined), the TGI was more than 100 µM in test [1]; more than 100 µM in [2]; 58.1 µM in [3]; 78.5 µM in test [4]; more than 100 µM in test [5]; 31.3 µM in [6]. For the same compound, the TGI in [7] is more than 100 µM; in test [10] it was 83.1 µM; in test [8], more than 100 µM; in test [9] it was more than 100 µM.

As for `Clc1cc2nn(C3CCCCO3)nc2cc1Cl` (centres undefined), the TGI in test [1], in test [2], in test [3], in test [4], in [5] and in test [7] was more than 100 µM in each case. The TGI in test [10], in test [8] and in [9] was more than 100 µM in each case.

Take `CC1(c2sccc2Cl)CC(c2sccc2Cl)=C(C#N)C(=C(C#N)C#N)N1` (centres undefined): the TGI was more than 100 µM in test [1]; 39.3 µM in test [2]; 32.5 µM in test [3]; 48.5 µM in test [4]; 54.6 µM in test [5]; 33.3 µM in test [6]. Besides, the TGI in test [7] was determined as 42.4 µM; in [8], 41.7 µM; in test [9], 32.8 µM.

With `Oc1ccc([C@H]2c3c(O)cc(O)cc3C3c4c(cc(O)cc4[C@@H]2[C@H]2c4cc(O)cc5c4C(c4cc(O)cc(O)c4[C@@H]2c2ccc(O)cc2)[C@@H](c2ccc(O)cc2)O5)O[C@@H]3c2ccc(O)cc2)cc1` (some centres undefined), the TGI in test [1], in [2], in test [3], in test [4], in test [5] and in [7] was more than 100 µM in each case. Moreover, the TGI in [10] is 50 µM; in [8], more than 100 µM; in test [9] it was more than 100 µM.

With `c1cc(-c2ccc(-c3ccc(-c4ccc(-c5ccncc5)o4)cc3)o2)ccn1`, the TGI is 25.7 µM in test [1]; 32.9 µM in [3]; more than 100 µM in test [4]; 44.7 µM in test [5]; more than 100 µM in test [6]; 35.8 µM in test [7]. In addition, the TGI was determined as 58.8 µM in test [10], 55.6 µM in test [8] and 34.7 µM in test [9].

As to `COC(=O)C1CCC(=O)N1C(c1cc(OC)c(OC)c(OC)c1)c1cc(OC)c(OC)c(OC)c1` (centres undefined), the TGI in [1], in test [2], in [3], in test [4], in [5] and in test [6] was more than 100 µM in each case. The TGI in test [7], in [10] and in test [8] was more than 100 µM in each case.

Take `COc1ccc(/C(C)=N/NC(=O)c2ccncc2)c(OC)c1`: the TGI in [1], in [3], in [4], in [6], in [7] and in [10] was more than 10 µM each time. Further, in [9], the TGI was more than 10 µM.

Consider `C=CC(O)(CBr)CCC(Br)C(=C)C` (centres undefined), for which the TGI in test [1], in test [2], in test [3], in test [4], in test [5] and in test [6] was more than 10 µM in each case. The TGI in test [7], in test [8] and in [9] was more than 10 µM each time.

On to `O=[N+]([O-])C(/C=C(\Cl)[N+](=O)[O-])=C1Nc2ccccc2N1`, for which the TGI in test [1] is more than 100 µM; in test [3] it was more than 100 µM; in test [4], more than 100 µM; in [5], more than 100 µM; in [6], 70.4 µM; in [7], more than 100 µM. Moreover, the TGI in test [10] is 75.1 µM; in [9], more than 100 µM.

`NS(=O)(=O)c1nnc(NC(=O)C23CC4CC(CC(C4)C2)C3)s1`: the TGI in test [1], in test [2], in test [3], in test [4], in test [6] and in test [10] was more than 100 µM throughout. Besides, the TGI in test [8] and in test [9] was more than 100 µM in each case.

With `CCCCn1c(CSc2ccc(Cl)cc2)c(C(=O)OCC)c2cc(OC)c(Br)cc21`, the TGI in [1], in test [2], in [3], in test [4], in test [6] and in [7] was more than 100 µM in each case. In addition, the TGI in test [10], in test [8] and in [9] was more than 100 µM throughout.

Consider `Cc1ccc(C2(c3ccc(Cl)cc3)c3ccccc3C3=NCCN32)cc1` (centres undefined), for which the TGI in test [1] worked out at 20.9 µM; in test [2] it was 28 µM; in test [3], 20 µM; in [4] it was 33.4 µM; in test [5], 14.6 µM; in test [6], 20 µM. The TGI was 14.9 µM in test [7], 26 µM in [8] and 16 µM in test [9].

Turning to `COc1ccc(OC)c(NCC(=O)Nn2cnc3ccc(S(=O)(=O)Nc4cc(OC)ccc4OC)cc3c2=O)c1`, the TGI in [1], in test [2], in test [3], in test [4], in test [5] and in [7] was more than 100 µM each time. The TGI in test [10], in test [8] and in test [9] was more than 100 µM each time.

For the compound `COc1ccc(/C=C/C(=O)/C=C/c2ccc(OC)cc2OC)c(OC)c1`, the TGI in test [1] was 40 µM; in test [2], 13.1 µM; in [3], 52.5 µM; in [4], more than 100 µM; in test [5] it was 12.7 µM; in test [7] it was 36.1 µM. Further, the TGI in test [10] turned out to be 13.1 µM; in [8] it was 36.5 µM; in test [9] it was 26.9 µM.

As to `Cc1cc(Cl)nc2nc(Cl)c(N)cc12`, the TGI was more than 22.6 µM in [1]; 31.4 µM in [2]; 5.95 µM in [3]; more than 24.3 µM in [4]; 22.9 µM in [7]; more than 25.2 µM in test [10]. Also, the TGI in test [8] was 34 µM; in test [9], 29.3 µM.

As to `N#CC1(C#N)NC(c2ccccc2)C(C#N)(C#N)NC1c1ccccc1` (centres undefined), the TGI in test [1], in test [2], in [3], in [4], in test [5] and in test [6] was more than 100 µM throughout. The TGI in test [7], in test [8] and in test [9] was more than 100 µM in each case.

As to `Cc1cc(S(=O)(=O)N2CCNNC2=O)c(S)cc1Cl`, the TGI in [1], in [2], in test [3], in [4], in test [6] and in test [7] was more than 100 µM throughout. The results for the TGI in test [10], in test [8] and in [9] were more than 100 µM, more than 100 µM and 46.2 µM, respectively.

Turning to `Nc1ccc2[nH]c(-c3cccc(C(F)(F)F)c3)cc(=O)c2c1`, the TGI in [1] is more than 100 µM; in test [3] it was more than 100 µM; in test [4] it was 65.6 µM; in test [5], more than 100 µM; in test [6] it was 82.9 µM; in test [7], more than 100 µM. Further, the TGI in test [10] was 97.8 µM; in [8] it was more than 100 µM; in test [9] it was more than 100 µM.

For the compound `COCCN(CCNC(=O)c1cccc2c(N)c3cccc(C)c3nc12)CCOC`, the TGI in test [1] was found to be 2.38 µM; in test [2], 18.7 µM; in test [3], 10.6 µM; in [4], 9.86 µM; in [5] it was 10.2 µM; in test [6], 14.6 µM. The results for the TGI in test [7], in [8] and in test [9] were 7.25 µM, 15.6 µM and 1.96 µM, respectively.

As to `O=C(Cc1ccccc1F)NC1=C(Cl)C(=O)c2ccccc2C1=O`, the TGI turned out to be 6.47 µM in test [1]; 2.98 µM in test [2]; 1.92 µM in test [3]; 23.8 µM in [4]; 19.5 µM in test [5]; 33.4 µM in test [6]. The values for the TGI in test [7], in [8] and in [9] were 9.25 µM, 21.2 µM and 5 µM, respectively.

On to `OC1c2ccccc2CCC1CN1CCN(CCOC(c2ccc(F)cc2)c2ccc(F)cc2)CC1` (centres undefined), for which the TGI in test [1] was more than 100 µM; in [2], 36.3 µM; in test [3], 27.7 µM; in test [4], 45.8 µM; in test [6], 26.9 µM; in [7] it was 61.9 µM. Also, the TGI is more than 100 µM in test [10] and 32.4 µM in test [9].

For the compound `CC(=O)Nc1ccc2nc(-c3ccccn3)c(-c3ccccn3)nc2c1`, the TGI in test [1], in [2], in test [3], in test [4], in test [6] and in [7] was more than 100 µM each time. Further, the TGI in test [10], in test [8] and in test [9] was more than 100 µM in each case.

Take `O=C(CN(C(=O)OC12CC3CC(CC(C3)C1)C2)C(=O)OC12CC3CC(CC(C3)C1)C2)Oc1ccc([N+](=O)[O-])cc1`: the TGI in test [1], in test [3], in test [4], in [5], in [7] and in test [10] was more than 100 µM each time. The TGI in [8] and in test [9] was more than 100 µM each time.

With `S=C(NCCc1ccccn1)N/N=C/c1ccccn1`, the TGI is 9.9 µM in test [2]; 4.59 µM in test [3]; more than 100 µM in [4]; more than 100 µM in test [5]; 0.571 µM in test [6]; 0.634 µM in test [7]. Further, the figures for the TGI in [10], in [8] and in test [9] were less than 0.0182 µM, more than 100 µM and more than 56.5 µM, respectively.

In the case of `COc1cc(OC)cc(-c2ccc(-c3ccc(C(=N)N)cn3)o2)c1`, the GI50 was 1.74 µM in [1]; 2.01 µM in test [2]; 1.77 µM in test [3]; 1.66 µM in test [4]; 1.22 µM in [6]; 1.81 µM in [7]. Also, the GI50 was 1.73 µM in test [10], 1.74 µM in test [8] and 1.82 µM in [9]. For the same compound, the TGI in test [1] amounted to 3.59 µM; in test [2], 3.72 µM; in test [3], 3.29 µM; in [4], 3.58 µM; in [6], 2.51 µM; in [7] it was 3.38 µM. Also, the TGI in [10] came out at 3.96 µM; in test [8] it was 3.2 µM; in test [9], 3.49 µM.

Consider `O=c1c2ccccc2[nH]n1Cc1ccccc1`, for which the TGI in test [1], in [2], in [3], in [4], in test [5] and in test [6] was more than 100 µM each time. Moreover, the TGI in test [7], in test [10] and in test [8] was more than 100 µM in each case.

Regarding `COC1CCON1C(=O)c1ccccc1` (centres undefined), the TGI in test [1], in test [2], in test [4], in test [5], in test [7] and in test [10] was more than 10 µM in each case. In addition, the TGI in test [8] and in [9] was more than 10 µM each time.
